Source: patent US20130209515A1, “ANTI-INFECTIVE AND IMMUNOMODULATORY COMPOUNDS” (priority 2005, published 2013)
Entries after “also recorded” stand apart in the source; their conditions may differ.

Assays:
P. aeruginosa cells = type: cell-based, Pseudomonas aeruginosa; conditions: 3 mM 2AA
[1] = system: pqsA-LacZ (MvfR-dependent pqs operon transcription); assay: pqsA-LacZ expression (β-galactosidase activity); type: cell-based, Pseudomonas aeruginosa
Experimental: To assess the effect of this compound on bacteria, we analyzed the production of HAQs in the presence of 2AA using LC/MS. The bacteria were propagated in the presence of 3 mM 2AA, culture media was collected at different time points, and the HHQ, PQS and HQNO production was measured in the supernatant. […] Since 2AA addition to the P. aeruginosa culture inhibits the production of HHQ and PQS, we assessed the transcription from the pqs operon using a pqsA-LacZ fusion.
To further, understand the mechanism of inhibition of the pqs operon by 2AA, we carried out competition assays of PQS and HHQ with 2AA. The expression of pqsA-LacZ in pqsApqsH double mutants was assessed. Bacteria were grown to an OD600 of 1.0 and HHQ and PQS were added either alone or with 2AA. LacZ expression was assayed at different stages of the growth, using standard protocols.
To determine whether HHQ activates MvfR expression, we generated a PA14pqsH/pqsA double mutant that lacks all HAQ production, and assessed pqsA-lacZ activity in the absence and presence of HHQ and PQS.

[2] = system: 4-hydroxy-2-alkylquinoline (HAQ) production; type: cell-based, Pseudomonas aeruginosa
P. aeruginosa PA14 = assay: Mouse burn and infection (BI) model, survival; type: in vivo, mice
Experimental: Burn wound infection in mice can be established by subcutaneous or topical administration of the bacteria to the sites of the burn. […] Six-week old CD-1 male mice were used.
To induce infection, the mice were placed under general anesthesia via intraperitonial injection of 40 mg/kg Pentobarbital, the ventral surface was shaved, and a central skin fold elevated was simultaneously compressed from both sides for 5 seconds using two 2×2 cm metal blocks preheated to 95-100° C., to produce a non-lethal 5-8% full thickness burn with negligible focal necrosis of the underlying muscle or damage to underlying visceral organs. IP saline was administered for fluid resuscitation for ≧5% total body surface burns: avoiding vital structures, saline was injected into the left lower quadrant of the abdominal area of the anesthetized animal post-burn. This burn procedure was followed by mid-eschar inoculation of 100 μL of bacterial suspension containing ˜5×10^5 CFU. The animals were returned to their cages and provided mouse chow and water ad libitum. Animals typically recover from the anesthesia within 20 minutes post-administration. Criteria used to evaluate anesthesia recovery are state of alertness, mobility, and reaction to surrounding stimuli. Mice were monitored twice a day for symptoms and deaths, with increased monitoring every 6-8 hours during the period of greatest potential for infection and clinical disease.
The mouse full-thickness skin thermal injury infection model was used to test if 2AA restricts P, aeruginosa virulence. This model is predictable and reproducible; clinically relevant; and can lead to MODS and mortality. Briefly, a ˜15% total burn surface area (TBSA) thermal scalding injury is produced on the abdominal skin, leaving the underlying muscle intact, and the inoculum is delivered into the scald eschar. […]

[3] = probable ATP-binding component of ABC transporter

CC(=O)c1ccccc1N [2AA, 2′-aminoacetophenone]
genes whose expression was altered more than 2 fold (P. aeruginosa cells; harvested at OD600 of 3.0): approximately 1250 genes | genes downregulated (P. aeruginosa cells; more than 2 fold): 1056 genes | genes upregulated (P. aeruginosa cells; more than 2 fold): 199 genes | FOLD CHANGE PA3569 (P. aeruginosa cells; 3-hydroxyisobutyrate dehydrogenase mmsB): −2.6 fold | FOLD CHANGE PA0999 (P. aeruginosa cells; 3-oxoacyl-[acyl-carrier-protein] synthase III pqsD): −5.2 fold | FOLD CHANGE PA2570 (P. aeruginosa cells; PA-I galactophilic lectin): −4.5 fold | FOLD CHANGE PA1001 (P. aeruginosa cells; anthranilate synthase component I, phnA): −6.2 fold | FOLD CHANGE PA1002 (P. aeruginosa cells; anthranilate synthase component II, phnB): −4.9 fold | FOLD CHANGE PA0905 (P. aeruginosa cells; carbon storage regulator csrA): −2.7 fold | FOLD CHANGE PA1457 (P. aeruginosa cells; chemotaxis protein CheZ): −2.1 fold | FOLD CHANGE PA2300 (P. aeruginosa cells; chitinase): −3.2 fold | FOLD CHANGE PA0122 (P. aeruginosa cells; conserved hypothetical protein): −3.4 fold | FOLD CHANGE PA0567 (P. aeruginosa cells; conserved hypothetical protein): −3.0 fold | FOLD CHANGE PA1914 (P. aeruginosa cells; conserved hypothetical protein): −26.3 fold | FOLD CHANGE PA2754 (P. aeruginosa cells; conserved hypothetical protein): −2.0 fold | FOLD CHANGE PA4739 (P. aeruginosa cells; conserved hypothetical protein): −3.7 fold | FOLD CHANGE PA3105 (P. aeruginosa cells; general secretion pathway protein D): −2.2 fold | FOLD CHANGE PA3101 (P. aeruginosa cells; general secretion pathway protein G): −3.4 fold | FOLD CHANGE PA3100 (P. aeruginosa cells; general secretion pathway protein H): −2.1 fold | FOLD CHANGE PA3099 (P. aeruginosa cells; general secretion pathway protein I): −2.2 fold | FOLD CHANGE PA3098 (P. aeruginosa cells; general secretion pathway protein J): −2.2 fold | FOLD CHANGE PA3096 (P. aeruginosa cells; general secretion pathway protein L): −2.8 fold | FOLD CHANGE PA3195 (P. aeruginosa cells; glyceraldehyde 3-phosphate dehydrogenase): −3.2 fold | FOLD CHANGE PA3126 (P. aeruginosa cells; heat-shock protein IbpA): −2.5 fold | FOLD CHANGE PA2194 (P. aeruginosa cells; hydrogen cyanide synthase HcnB): −3.5 fold | FOLD CHANGE PA2195 (P. aeruginosa cells; hydrogen cyanide synthase HcnC): −2.9 fold | FOLD CHANGE PA4205 (P. aeruginosa cells; hypothetical protein MexG): −6.1 fold | FOLD CHANGE PA0997 (P. aeruginosa cells; hypothetical protein pqsB): −4.6 fold | FOLD CHANGE PA0998 (P. aeruginosa cells; hypothetical protein pqsC): −5.4 fold | FOLD CHANGE PA1000 (P. aeruginosa cells; hypothetical protein pqsE): −4.3 fold | FOLD CHANGE PA1216 (P. aeruginosa cells; hypothetical protein): −2.7 fold | FOLD CHANGE PA1852 (P. aeruginosa cells; hypothetical protein): −2.3 fold | FOLD CHANGE PA2031 (P. aeruginosa cells; hypothetical protein): −2.0 fold | FOLD CHANGE PA2134 (P. aeruginosa cells; hypothetical protein): −2.5 fold | FOLD CHANGE PA2172 (P. aeruginosa cells; hypothetical protein): −2.4 fold | FOLD CHANGE PA2173 (P. aeruginosa cells; hypothetical protein): −2.3 fold | FOLD CHANGE PA2274 (P. aeruginosa cells; hypothetical protein): −3.7 fold | FOLD CHANGE PA2328 (P. aeruginosa cells; hypothetical protein): −4.5 fold | FOLD CHANGE PA2330 (P. aeruginosa cells; hypothetical protein): −11.7 fold | FOLD CHANGE PA2331 (P. aeruginosa cells; hypothetical protein): −10.9 fold | FOLD CHANGE PA2486 (P. aeruginosa cells; hypothetical protein): −2.3 fold | FOLD CHANGE PA3031 (P. aeruginosa cells; hypothetical protein): −3.1 fold | FOLD CHANGE PA3370 (P. aeruginosa cells; hypothetical protein): −2.2 fold | FOLD CHANGE PA3371 (P. aeruginosa cells; hypothetical protein): −2.1 fold | FOLD CHANGE PA3691 (P. aeruginosa cells; hypothetical protein): −7.0 fold | FOLD CHANGE PA4917 (P. aeruginosa cells; hypothetical protein): −2.1 fold | FOLD CHANGE PA3570 (P. aeruginosa cells; methylmalonate-semialdehyde dehydrogenase): −2.9 fold | FOLD CHANGE PA4876 (P. aeruginosa cells; osmotically inducible lipoprotein OsmE): −2.6 fold | FOLD CHANGE PA3186 (P. aeruginosa cells; outer membrane porin OprB precursor): −2.2 fold | FOLD CHANGE PA1901 (P. aeruginosa cells; phenazine biosynthesis protein PhzC): −3.4 fold | FOLD CHANGE PA1902 (P. aeruginosa cells; phenazine biosynthesis protein PhzD): −3.4 fold | FOLD CHANGE PA1903 (P. aeruginosa cells; phenazine biosynthesis protein PhzE): −3.1 fold | FOLD CHANGE PA2329 (P. aeruginosa cells; [3]): −9.8 fold | FOLD CHANGE PA3187 (P. aeruginosa cells; [3]): −2.6 fold | FOLD CHANGE PA4217 (P. aeruginosa cells; probable FAD-dependent monooxygenase phzS1): −5.4 fold | FOLD CHANGE PA4209 (P. aeruginosa cells; probable O-methyltransferase phzM): −2.4 fold | FOLD CHANGE PA4206 (P. aeruginosa cells; probable RND efflux membrane fusion protein precursor mexH): −5.9 fold | FOLD CHANGE PA4207 (P. aeruginosa cells; probable RND efflux transporter mexI): −7.5 fold | FOLD CHANGE PA2069 (P. aeruginosa cells; probable carbamoyl transferase): −2.5 fold | FOLD CHANGE PA0996 (P. aeruginosa cells; probable coenzyme A ligase pqsA): −3.0 fold | FOLD CHANGE PA2204 (P. aeruginosa cells; probable component of ABC transporter): −3.1 fold | FOLD CHANGE PA2067 (P. aeruginosa cells; probable hydrolase): −2.5 fold | FOLD CHANGE PA3812 (P. aeruginosa cells; probable iron-binding protein IscA): −5.9 fold | FOLD CHANGE PA3813 (P. aeruginosa cells; probable iron-binding protein IscU): −6.7 fold | FOLD CHANGE PA4208 (P. aeruginosa cells; probable outer membrane efflux protein precursor, OpmD): −6.8 fold | FOLD CHANGE PA3692 (P. aeruginosa cells; probable outer membrane protein): −4.7 fold | FOLD CHANGE PA3189 (P. aeruginosa cells; probable permease of ABC sugar transporter): −2.0 fold | FOLD CHANGE PA2327 (P. aeruginosa cells; probable permease of ABC transporter): −4.9 fold | FOLD CHANGE PA4210 (P. aeruginosa cells; probable phenazine biosynthesis protein phzA1): −3.3 fold | FOLD CHANGE PA4211 (P. aeruginosa cells; probable phenazine biosynthesis protein phzB1): −2.9 fold | FOLD CHANGE PA1904 (P. aeruginosa cells; probable phenazine biosynthesis protein): −3.6 fold | FOLD CHANGE PA1905 (P. aeruginosa cells; probable pyridoxamine 5′-phosphate oxidase): −3.4 fold | FOLD CHANGE PA4218 (P. aeruginosa cells; probable transporter): −5.3 fold | FOLD CHANGE PA0355 (P. aeruginosa cells; protease pfpI): −2.7 fold | FOLD CHANGE PA1456 (P. aeruginosa cells; two-component response regulator CheY): −2.3 fold | LacZ expression from pqsA-LacZ fusion ([1]; PA14, 3 mM 2AA (FIG. 14)): significant reduction | pqsA expression (pqsA-LacZ) in response to HHQ ([1]; pqsApqsH double mutant, 3 mM 2AA with 1 mg/L HHQ): blocks pqsA expression | pqsA expression (pqsA-LacZ) in response to PQS ([1]; pqsApqsH double mutant, 3 mM 2AA with 10 μl PQS): blocks pqsA expression; also recorded: inhibits pqsA expression at later time points | HHQ production [2]: no HHQ was produced | HQNO accumulation [2]: higher accumulation of HQNO | PQS production [2]: only a limited quantity of PQS was produced | production of 3,4-dihydroxy-2-heptylquinoline (PQS) [2]: decreased | production of 4-hydroxy-2-heptylquinoline (HHQ) [2]: decreased | production of 4-hydroxy-2-heptylquinoline N-oxide (HQNO) [2]: enhanced | protection (survival curves) (P. aeruginosa PA14; 10 mM solutions IV 4 days pre-BI (FIGS. 11A, 11B)): significantly greater | time to succumb to PA14 lethality (P. aeruginosa PA14; 2AA injected in the scald eschar 1 hr post BI (FIG. 7)): significantly later | survival (P. aeruginosa PA14; IP 2AA injection 3 days pre-BI): 50% | survival (P. aeruginosa PA14; IP 2AA injection 8 days pre-BI): 50% | mortality (P. aeruginosa PA14; IP 2AA injection up to 4 weeks pre-BI): 50% | mortality (P. aeruginosa PA14; IP 500 μl of 20 mM, 2 days pre-BI, controls ~90%): 60% | survival to PA14 infection (P. aeruginosa PA14; IV 100 μl of 10 mM, 4 days pre-BI): ~90% | average survival after 5 days (P. aeruginosa PA14; IV tail vein 100 μl of 10 mM, four days prior to burn/infection, n=8-10, control 10% (FIG. 9)): 50% | protection (survival) (P. aeruginosa PA14; single IP injection 500 μl of 20 mM, 6 hours pre-BI): no protection
